In PMC11876601 (Molecular Systems Biology, 2025):

System: 13 PDAC cell lines
Assay: Phenotypic drug combination viability screen (ATPlite, 72 h), cell line panel
Format: cell-based, human
Details: of 13 cell lines; Bliss model

Row | SMILES | number of cell lines with synergy with GEM [cell lines]
1 | C[C@]12O[C@H](C[C@]1(O)CO)n1c3ccccc3c3c4c(c5c6ccccc6n2c5c31)CNC4=O [Lestaurtinib] | 5
2 | COc1cc(N2CCC(N3CCN(C)CC3)CC2)ccc1Nc1ncc(Cl)c(Nc2ccccc2P(C)(C)=O)n1 [Brigatinib] | 5
